According to ChEMBL document CHEMBL1201862, “PubChem BioAssay data set” (2004):
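Dose response: 5 concentrations. Exposure: 48 h. Format: 96-well plates. Endpoint: linear interpolation; highest concentration if not reached. GI50 = concentration required for 50% inhibition of growth.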 Activity calls are given as the source filed them. Rule as the data show it: active = GI50 up to about 1.1 µM and inactive = higher.

Columns and labels:
Assay in all cases: DTP human tumour cell line panel, 48 h
[1] = tested on: SF-295
[2] = tested on: Malme-3M
[3] = tested on: U-251
[4] = tested on: UACC-62
[5] = tested on: SF-539
[6] = tested on: SNB-75
[7] = tested on: K562
[8] = tested on: HT-29
[9] = tested on: NCI-H460
[10] = tested on: SNB-19
[11] = tested on: NCI-H23
[12] = tested on: SF-268
[13] = tested on: SN12C
[14] = tested on: UO-31
[15] = tested on: SK-MEL-5
[16] = tested on: ACHN
[17] = tested on: HL-60

Measured: GI50

C=C1C(=O)O[C@H](c2ccoc2)C[C@@H]1[C@@]1(C)CCCC2(C)C(=O)OCC21 (stereo partly drawn)
inactive: [1] > 100 µM | [2] > 100 µM | [3] > 100 µM | [4] > 100 µM | [5] > 100 µM | [6] > 100 µM | [7] > 100 µM | [8] > 100 µM | [9] > 100 µM | [10] > 100 µM | [11] > 100 µM | [12] > 100 µM | [13] > 100 µM | [14] > 100 µM | [15] > 100 µM | [16] > 100 µM

CC(C)(C)c1cc(CCC(=O)Nc2ccc(Cl)cc2)nc(NC#N)n1
inactive: [1] > 100 µM | [17] > 100 µM | [3] > 100 µM | [4] > 100 µM | [5] > 100 µM | [7] > 100 µM | [8] > 100 µM | [9] > 100 µM | [10] > 100 µM | [11] > 100 µM | [12] > 100 µM | [14] > 100 µM | [16] > 100 µM

O=c1[c-](-c2ccccc2)[se]c(-c2ccccc2)[n+]1-c1ccccc1
inactive: [1] 3.61 µM | [2] 15.5 µM | [17] 1.53 µM | [4] 13 µM | [5] 1.48 µM | [6] 8.15 µM | [7] 16.8 µM | [8] 23 µM | [9] 15.9 µM | [10] 7.52 µM | [11] 11.8 µM | [12] 5.55 µM | [13] 5.05 µM | [14] 3.08 µM | [15] 13 µM

O=C(Nc1ccc(Cl)cc1Cl)OC(Cn1cncn1)c1ccc(Cl)cc1Cl (stereo not drawn)
inactive: [1] 17.4 µM | [2] 15 µM | [17] 44 µM | [3] 16.1 µM | [4] 14.8 µM | [5] 17.9 µM | [6] 16.1 µM | [7] 15.3 µM | [8] 15.2 µM | [10] 16.9 µM | [11] 14.6 µM | [12] 17.1 µM | [13] 16.9 µM | [14] 13.2 µM | [15] 16.7 µM | [16] 15.5 µM

COC(=O)Cc1cc(OC)c(OC)cc1Br
inactive: [1] > 100 µM | [2] > 100 µM | [17] > 100 µM | [3] > 100 µM | [4] > 100 µM | [6] 66.4 µM | [7] > 100 µM | [8] > 100 µM | [9] > 100 µM | [10] > 100 µM | [11] > 100 µM | [12] > 100 µM | [13] > 100 µM | [14] > 100 µM | [16] > 100 µM

CC(C)N(C(=O)C12C3C4C1C1C2C3C41C(=O)O)C(C)C (stereo not drawn)
inactive: [1] > 100 µM | [2] > 100 µM | [17] > 100 µM | [4] > 100 µM | [5] > 100 µM | [6] > 100 µM | [7] > 100 µM | [8] > 100 µM | [9] > 100 µM | [10] > 100 µM | [11] > 100 µM | [12] > 100 µM | [13] > 100 µM | [14] > 100 µM | [15] > 100 µM | [16] > 100 µM

C[N+](C)(C)CC(=O)N/N=C/c1oc(-c2cccc([N+](=O)[O-])c2)c(-c2cccc([N+](=O)[O-])c2)c1[N+](=O)[O-]
inactive: [2] > 100 µM | [17] 42.3 µM | [4] 29.5 µM | [5] > 100 µM | [7] > 10 µM | [8] > 100 µM | [9] > 100 µM | [10] 85.9 µM | [11] > 100 µM | [12] > 100 µM | [13] > 100 µM | [14] 79.1 µM | [15] 72.3 µM | [16] > 100 µM

COc1cc(C2C(Cl)C(=O)N2NC(=O)c2ccc(N)cc2)cc(Br)c1O (stereo not drawn)
inactive: [1] 14.6 µM | [2] 14.5 µM | [17] 8.75 µM | [3] 3.31 µM | [4] 14 µM | [5] 19.5 µM | [6] 17.2 µM | [7] 10.2 µM | [8] 19.8 µM | [9] 16.6 µM | [10] 11.7 µM | [11] 16.4 µM | [12] 4.19 µM | [13] 17 µM | [14] 17.8 µM | [15] 17.9 µM | [16] 19.2 µM

O=C(O)/C(=C/c1ccccc1[N+](=O)[O-])c1ccccc1
inactive: [1] > 100 µM | [17] > 100 µM | [3] > 100 µM | [4] > 100 µM | [5] > 100 µM | [6] > 100 µM | [7] > 100 µM | [8] > 100 µM | [9] > 100 µM | [10] > 100 µM | [11] > 100 µM | [12] > 100 µM | [13] > 100 µM | [14] > 100 µM | [15] > 100 µM | [16] > 100 µM
